# Laboratory results as given in patent US20170190671A1, “BIS(ARYL)CATECHOL DERIVATIVES AS HERBICIDES” (E I DU PONT DE NEMOURS AND COMPANY, priority 2014, published 2017).
# Key:
# Format in all cases: in vivo
# [1] = system: blackgrass (Alopecurus myosuroides); experiment: Test C preemergence; details: Alopecurus myosuroides, pre-emergence, 336 h, scale 0 to 100, read-out: Plant response rating, Blackgrass
# Outline: (§1)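 Seeds sown in a loam soil and sand blend were treated preemergence; plants in peat-moss/vermiculite medium were sprayed at the 1- to 4-leaf stage (2-18 cm). Chemicals were in a non-phytotoxic surfactant-containing solvent. After 13 to 15 days in a greenhouse, injury was visually rated against controls on a 0-100 scale.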
# [2] = system: pigweed (Amaranthus retroflexus); experiment: Test C preemergence; details: Amaranthus retroflexus, pre-emergence, 336 h, scale 0 to 100, read-out: Plant response rating, Pigweed
# Outline: as §1
# [3] = system: winter wheat (Triticum aestivum); experiment: Test C preemergence; details: Triticum aestivum, pre-emergence, 336 h, scale 0 to 100, read-out: Plant response rating, Wheat
# Outline: as §1
# soybean (Glycine max) = experiment: Test C preemergence; details: Glycine max, pre-emergence, scale 0 to 100, read-out: Plant response rating, Soybean
# Outline: as §1
# [4] = system: morningglory (Ipomoea coccinea); experiment: Test C preemergence; details: Ipomoea, pre-emergence, 336 h, scale 0 to 100, read-out: Plant response rating, Morningglory
# Outline: as §1
# [5] = system: giant foxtail (Setaria faberii); experiment: Test C preemergence; details: Setaria faberi, pre-emergence, 336 h, scale 0 to 100, read-out: Plant response rating, Foxtail, Giant
# Outline: as §1
# [6] = system: barnyardgrass (Echinochloa crus-galli); experiment: Test C preemergence; details: Echinochloa crus-galli, pre-emergence, read-out: Plant response rating, Barnyardgrass
# Outline: as §1
# [7] = system: johnsongrass (Sorghum halepense); experiment: Test C preemergence; details: Sorghum halepense, pre-emergence, 336 h, scale 0 to 100, read-out: Plant response rating, Johnsongrass
# Outline: as §1
# corn (Zea mays) = experiment: Test C preemergence; details: Zea mays, pre-emergence, 336 h, scale 0 to 100
# Outline: as §1
# [8] = system: ragweed (common ragweed, Ambrosia elatior); experiment: Test C preemergence; details: Ambrosia artemisiifolia, pre-emergence, 336 h, scale 0 to 100, read-out: Plant response rating, Ragweed
# Outline: as §1
# [9] = system: Italian ryegrass (Lolium multiflorum); experiment: Test C preemergence; details: Lolium multiflorum, pre-emergence, 336 h, scale 0 to 100, read-out: Plant response rating, Ryegrass, Italian
# Outline: as §1
# [10] = system: large (Lg) crabgrass (Digitaria sanguinalis); experiment: Test C preemergence; details: Digitaria sanguinalis, pre-emergence, 336 h, scale 0 to 100, read-out: Plant response rating, Crabgrass, Large
# Outline: as §1
# [11] = system: waterhemp (common waterhemp, Amaranthus rudis); experiment: Test C preemergence; details: Amaranthus tuberculatus, pre-emergence, scale 0 to 100, read-out: Plant response rating, Waterhemp
# Outline: as §1
# [12] = system: oilseed rape (Brassica napus); experiment: Test C preemergence; details: Brassica napus, pre-emergence, scale 0 to 100, read-out: Plant response rating, Oilseed Rape
# Outline: as §1
# [13] = system: velvetleaf (Abutilon theophrasti); experiment: Test C preemergence; details: Abutilon theophrasti, pre-emergence, scale 0 to 100, read-out: Plant response rating, Velvetleaf
# Outline: as §1
# [14] = system: pigweed (Amaranthus retroflexus); experiment: Test C postemergence; details: Amaranthus retroflexus, post-emergence, 336 h, Postemergence, scale 0 to 100, read-out: Plant response rating, Pigweed
# Outline: as §1
# [15] = system: yellow nutsedge (Cyperus esculentus); experiment: Test C postemergence; details: Cyperus, post-emergence, 336 h, Postemergence, scale 0 to 100, read-out: Plant response rating, Nutsedge, Yellow
# Outline: as §1
# wild oat (Avena fatua) = experiment: Test C postemergence; details: Avena fatua, post-emergence, Postemergence, scale 0 to 100, read-out: Plant response rating, Oat, Wild
# Outline: as §1
# [16] = system: galium (catchweed bedstraw, Galium aparine); experiment: Test C postemergence; details: Galium, post-emergence, 336 h, Postemergence, scale 0 to 100, read-out: Plant response rating, Galium
# Outline: as §1
# kochia (Kochia scoparia) = experiment: Test C postemergence; details: Bassia scoparia, post-emergence, Postemergence, scale 0 to 100, read-out: Plant response rating, Kochia
# Outline: as §1
# [17] = system: waterhemp (common waterhemp, Amaranthus rudis); experiment: Test C postemergence; details: Amaranthus tuberculatus, post-emergence, Postemergence, scale 0 to 100, read-out: Plant response rating, Waterhemp
# Outline: as §1
# [18] = system: chickweed (common chickweed, Stellaria media); experiment: Test C postemergence; details: Stellaria media, post-emergence, Postemergence, scale 0 to 100, read-out: Plant response rating, Chickweed
# Outline: as §1
smiles,measurement,setting,value
"Fc1cccc(Oc2ncc(Cl)cn2)c1Oc1ncc(C(F)(F)F)cn1 [Compound 43, 5-chloro-2-[5-fluoro-6-[[5-(trifluoromethyl)-2-pyrimidinyl]oxy]phenoxy]pyrimidine]",pest or weed control at 31 g/ha,"[1]; 31 g ai/ha, preemergence",50%
same,pest or weed control at 62 g/ha,"[1]; 62 g ai/ha, preemergence",90%
same,pest or weed control at 125 g/ha,"[1]; 125 g ai/ha, preemergence",95%
same,pest or weed control at 16 g/ha,"[1]; Preemergence, 16 g ai/ha",40%
same,pest or weed control at 31 g/ha,"[2]; 31 g ai/ha, preemergence",100%
same,pest or weed control at 62 g/ha,"[2]; 62 g ai/ha, preemergence",100%
same,pest or weed control at 125 g/ha,"[2]; 125 g ai/ha, preemergence",100%
same,pest or weed control at 16 g/ha,"[2]; Preemergence, 16 g ai/ha",100%
same,plant injury at 31 g/ha,"[3]; 31 g ai/ha, preemergence",25%
same,plant injury at 62 g/ha,"[3]; 62 g ai/ha, preemergence",40%
same,plant injury at 125 g/ha,"[3]; 125 g ai/ha, preemergence",90%
same,plant injury at 16 g/ha,"[3]; Preemergence, 16 g ai/ha",5%
same,plant injury at 31 g/ha,"soybean (Glycine max); 31 g ai/ha, preemergence",45%
same,plant injury at 62 g/ha,"soybean (Glycine max); 62 g ai/ha, preemergence",75%
same,plant injury at 125 g/ha,"soybean (Glycine max); 125 g ai/ha, preemergence",90%
same,plant injury at 16 g/ha,"soybean (Glycine max); Preemergence, 16 g ai/ha",30%
same,pest or weed control at 31 g/ha,"[4]; 31 g ai/ha, preemergence",85%
same,pest or weed control at 62 g/ha,"[4]; 62 g ai/ha, preemergence",100%
same,pest or weed control at 125 g/ha,"[4]; 125 g ai/ha, preemergence",100%
same,pest or weed control at 16 g/ha,"[4]; Preemergence, 16 g ai/ha",70%
same,pest or weed control at 31 g/ha,"[5]; 31 g ai/ha, preemergence",100%
same,pest or weed control at 62 g/ha,"[5]; 62 g ai/ha, preemergence",100%
same,pest or weed control at 125 g/ha,"[5]; 125 g ai/ha, preemergence",100%
same,pest or weed control at 16 g/ha,"[5]; Preemergence, 16 g ai/ha",95%
same,pest or weed control at 31 g/ha,"[6]; 31 g ai/ha, preemergence, scale 0 to 100",85%
same,pest or weed control at 62 g/ha,"[6]; 62 g ai/ha, preemergence, scale 0 to 100",100%
same,pest or weed control at 125 g/ha,"[6]; 125 g ai/ha, preemergence, scale 0 to 100",100%
same,pest or weed control at 16 g/ha,"[6]; Preemergence, 16 g ai/ha, scale 0 to 100 (0 no effect, 100 complete control)",60%
same,pest or weed control at 31 g/ha,"[7]; 31 g ai/ha, preemergence",75%
same,pest or weed control at 62 g/ha,"[7]; 62 g ai/ha, preemergence",100%
same,pest or weed control at 125 g/ha,"[7]; 125 g ai/ha, preemergence",100%
same,pest or weed control at 16 g/ha,"[7]; Preemergence, 16 g ai/ha",20%
same,"Corn plant response rating (crop injury, 0 = no effect, 100 = complete kill) at 31 g/ha","corn (Zea mays); 31 g ai/ha, preemergence",20%
same,"Corn plant response rating (crop injury, 0 = no effect, 100 = complete kill) at 62 g/ha","corn (Zea mays); 62 g ai/ha, preemergence",65%
same,"Corn plant response rating (crop injury, 0 = no effect, 100 = complete kill) at 125 g/ha","corn (Zea mays); 125 g ai/ha, preemergence",90%
same,"Corn plant response rating (crop injury, 0 = no effect, 100 = complete kill) at 16 g/ha","corn (Zea mays); Preemergence, 16 g ai/ha",20%
same,pest or weed control at 31 g/ha,"[8]; 31 g ai/ha, preemergence",80%
same,pest or weed control at 62 g/ha,"[8]; 62 g ai/ha, preemergence",100%
same,pest or weed control at 125 g/ha,"[8]; 125 g ai/ha, preemergence",90%
same,pest or weed control at 16 g/ha,"[8]; Preemergence, 16 g ai/ha",35%
same,pest or weed control at 31 g/ha,"[9]; 31 g ai/ha, preemergence",50%
same,pest or weed control at 62 g/ha,"[9]; 62 g ai/ha, preemergence",85%
same,pest or weed control at 125 g/ha,"[9]; 125 g ai/ha, preemergence",95%
same,pest or weed control at 16 g/ha,"[9]; Preemergence, 16 g ai/ha",5%
same,pest or weed control at 31 g/ha,"[10]; 31 g ai/ha, preemergence",100%
same,pest or weed control at 62 g/ha,"[10]; 62 g ai/ha, preemergence",100%
same,pest or weed control at 125 g/ha,"[10]; 125 g ai/ha, preemergence",100%
same,pest or weed control at 16 g/ha,"[10]; Preemergence, 16 g ai/ha",100%
same,pest or weed control at 31 g/ha,"[11]; 31 g ai/ha, preemergence",100%
same,pest or weed control at 62 g/ha,"[11]; 62 g ai/ha, preemergence",100%
same,pest or weed control at 125 g/ha,"[11]; 125 g ai/ha, preemergence",100%
same,pest or weed control at 16 g/ha,"[11]; Preemergence, 16 g ai/ha",85%
same,plant injury at 31 g/ha,"[12]; 31 g ai/ha, preemergence",100%
same,plant injury at 62 g/ha,"[12]; 62 g ai/ha, preemergence",100%
same,plant injury at 125 g/ha,"[12]; 125 g ai/ha, preemergence",100%
same,plant injury at 16 g/ha,"[12]; Preemergence, 16 g ai/ha",95%
same,pest or weed control at 31 g/ha,"[13]; 31 g ai/ha, preemergence",100%
same,pest or weed control at 62 g/ha,"[13]; 62 g ai/ha, preemergence",100%
same,pest or weed control at 125 g/ha,"[13]; 125 g ai/ha, preemergence",100%
same,pest or weed control at 16 g/ha,"[13]; Preemergence, 16 g ai/ha",100%
same,pest or weed control at 31 g/ha,[14]; 31 g ai/ha,85%
same,pest or weed control at 62 g/ha,[14]; 62 g ai/ha,90%
same,pest or weed control at 125 g/ha,[14]; 125 g ai/ha,98%
same,pest or weed control at 31 g/ha,[15]; 31 g ai/ha,0%
same,pest or weed control at 62 g/ha,[15]; 62 g ai/ha,0%
same,pest or weed control at 125 g/ha,[15]; 125 g ai/ha,5%
same,pest or weed control at 31 g/ha,wild oat (Avena fatua); 31 g ai/ha,5%
same,pest or weed control at 62 g/ha,wild oat (Avena fatua); 62 g ai/ha,20%
same,pest or weed control at 125 g/ha,wild oat (Avena fatua); 125 g ai/ha,60%
same,pest or weed control at 16 g/ha,[16]; 16 g ai/ha,35%
same,pest or weed control at 31 g/ha,[16]; 31 g ai/ha,80%
same,pest or weed control at 62 g/ha,[16]; 62 g ai/ha,85%
same,pest or weed control at 125 g/ha,[16]; 125 g ai/ha,90%
same,pest or weed control at 16 g/ha,kochia (Kochia scoparia); 16 g ai/ha,90%
same,pest or weed control at 31 g/ha,kochia (Kochia scoparia); 31 g ai/ha,95%
same,pest or weed control at 62 g/ha,kochia (Kochia scoparia); 62 g ai/ha,100%
same,pest or weed control at 125 g/ha,kochia (Kochia scoparia); 125 g ai/ha,100%
same,pest or weed control at 31 g/ha,[17]; 31 g ai/ha,70%
same,pest or weed control at 62 g/ha,[17]; 62 g ai/ha,80%
same,pest or weed control at 125 g/ha,[17]; 125 g ai/ha,90%
same,pest or weed control at 16 g/ha,[18]; 16 g ai/ha,40%
same,pest or weed control at 31 g/ha,[18]; 31 g ai/ha,70%
same,pest or weed control at 62 g/ha,[18]; 62 g ai/ha,70%
same,pest or weed control at 125 g/ha,[18]; 125 g ai/ha,100%
